Source: patent publication EP1000062B1, “TRICYCLIC VASOPRESSIN AGONISTS” (Wyeth, priority 1997, dated 1999)

Assays:
Assay type in all cases: in vivo
[1] = test system: Vasopressin V2; experiment: Vasopressin V2 agonist effects of test compounds in normal conscious water-loaded rats; settings: Sprague-Dawley (CD) rats, oral 1 mg/kg, urine collected for four hours; for Osmolality (% Increase): change in osmolality as percent of control; for Urine Volume (% decrease): vs. control
[2] = test system: Vasopressin V2; experiment: Vasopressin V2 agonist effects of test compounds in normal conscious homozygous Brattleboro rats with central diabetes insipidus; settings: Brattleboro (BB) rats, oral 10 mg/kg, urine collected for six hours; for Osmolality (% Increase): change in osmolality as percent of control; for Urine Volume (% decrease): vs. control
From the text: Vasopressin V2 Agonist Effects of Test Compounds in Normal Conscious Homozygous Brattleboro Rats with Central Diabetes Insipidus
Male or female homozygous Brattleboro rats (Harlan Sprague Dawley, Inc., Indianapolis, IN) of 250-350 g body weight were supplied with standard rodent diet (Purina Rodent Lab. Chow 5001) and water ad libitum. On the day of test, rats were placed individually into metabolic cages equipped with devices to separate the feces from the urine and containers for collection of urine. Test compound or reference agent was given at an oral dose of 1 to 10 mg/kg in a volume of 10 ml /kg. The vehicle used was 20% dimethylsulfoxide (DMSO) in 2.5% preboiled corn starch. During the test, rats were provided with water ad libitum. Urine was collected for six hours after dosing of the test compound. At the end of six hours, urine volume was measured. Urinary osmolality was determined using a Fiske One-Ten Osmometer (Fiske Associates, Norwood, MA, 02062) or an Advanced CRYOMATIC Osmometer, Model 3C2 (Advanced Instruments, Norwood, MA). Determinations of Na^+, K^+ and Cl^- ion were carried out using ion specific electrodes in a Beckman SYNCHRON EL-ISE Electrolyte System analyzer. This animal model was mainly used for evaluation of potency and duration of action of the active compounds.

[3] = test system: Vasopressin V2; experiment: Vasopressin V2 agonist effects of test compounds in normal conscious water-loaded rats; settings: Sprague-Dawley (CD) rats, oral 10 mg/kg, urine collected for four hours; for Osmolality (% Increase): change in osmolality as percent of control; for Urine Volume (% decrease): vs. control

Compound	Osmolality (% Increase) [3] [%]	Urine Volume (% decrease) [3] [%]	also measured
Cc1ccn(-c2ccc(C(=O)N3Cc4cccn4Cc4ccccc43)c(C(F)(F)F)c2)n1 [Example 2, [4-(3-Methyl-pyrazol-1-yl)-2-trifluoromethyl-phenyl](5H,11H-pyrrolo[2,1-c]-[1,4]benzadiazepin-10-yl)-methanone]			Osmolality (% Increase) [1]: 306% (1 mg/kg); Urine Volume (% decrease) [1]: 80% (1 mg/kg)
Cc1ccn(-c2ncc(C(=O)N3Cc4cccn4Cc4ccccc43)c(C(F)(F)F)n2)n1 [Example 20, [2-(3-Methyl-pyrazol-1-yl)-4-trifluoromethyl-pyrimidin-5-yl]-(5H,11H-pyrrolo[2,1-c][1,4]benzodiazepin-10-yl)-methanone]			Osmolality (% Increase) [1]: 152% (1 mg/kg); Urine Volume (% decrease) [1]: 25% (1 mg/kg)
CC(=O)n1ccc(-c2ccc(C(=O)N3Cc4cccn4Cc4ccccc43)cc2)n1 [Example 30, 1-{3-[4-(5H,11H-Pyrrolo[2,1-c][1,4]benzodiazepine-10-carbonyl)-phenyl]-pyrazol-1-yl}-ethanone]			Osmolality (% Increase) [2]: 334%; Urine Volume (% decrease) [2]: 81%
O=C(c1ccc(-c2ccn(C(=O)c3cccs3)n2)cc1)N1Cc2cccn2Cc2ccccc21 [Example 34, (5H,11H-Pyrrolo[2,1-c][1,4]benzodiazepin-10-yl)-{4-[1-(thiophene-2-carbonyl)-1H-pyrazoly-3-yl]phenyl}-methanone]			Osmolality (% Increase) [2]: 407%; Urine Volume (% decrease) [2]: 76%
Cc1ccccc1C(=O)n1ccc(-c2ccc(C(=O)N3Cc4cccn4Cc4ccccc43)cc2)n1 [Example 36, {4-[1-(2-Methyl-benzoyl)-1H-pyrazol-3-yl]-phenyl}-(5H,11H-pyrrolo[2,1-c][1,4]benzodiazepin-10-yl)-methanone]			Osmolality (% Increase) [2]: 164%; Urine Volume (% decrease) [2]: 66%
O=C(c1ccc(-c2ccn(C(=O)c3ccc(Cl)cc3Cl)n2)cc1)N1Cc2cccn2Cc2ccccc21 [Example 38, {4-[1-(2,4-Dichloro-benzoyl)-1H-pyrazol-3-yl]-phenyl}-(5H,11H-pyrrolo[2,1-c][1,4]benzodiazepin-10-yl)-methanone]			Osmolality (% Increase) [2]: 256%; Urine Volume (% decrease) [2]: 66%
Cn1ncnc1-c1ccc(C(=O)N2Cc3cccn3Cc3ccccc32)cc1 [Example 49, [4-(2-Methyl-2H-[1,2,4]triazol-3-yl)-phenyl]-(5H,11H-pyrrolo[2,1-c][1,4]-benzodiazepin-10-yl)-methanone]			Osmolality (% Increase) [2]: 221%; Urine Volume (% decrease) [2]: 74%
Cc1ccn(-c2ccc(C(=O)O)c(Cl)c2)n1 [Example 97, 2-Chloro-4-(3-methyl-1H-pyrazol-1-yl)-benzoic acid]	106	3	
O=C(c1ccc(-n2cccn2)nc1Cl)N1Cc2cccn2Cc2ccccc21 [Example 99, (2-Chloro-6-pyrazol-1-yl-pyridin-3-yl)-(5H,11H-pyrrolo[2,1-c][1,4]benzodiazepin-10-yl)-methanone]	205	43	
Cc1ccn(-c2ccc(C(=O)N3Cc4cccn4Cc4ccccc43)c(Cl)n2)n1 [Example 100, [2-Chloro-6-(3-methylpyrazol-1-yl)-pyridin-3-yl]-(5H,11H-pyrrolo[2,1-c] [1,4]benzodiazepin-10-yl)-methanone]	248	24	
Cc1cnn(-c2ccc(C(=O)N3Cc4cccn4Cc4ccccc43)c(Cl)n2)c1 [Example 101, [2-Chloro-6-(4-methylpyrazol-1-yl)-pyridin-3-yl](5H,11H-pyrrolo[2,1-c] [1,4]benzodiazepin-10-yl)-methanone]	376	76	
COc1cc(-n2ccc(C)n2)ccc1C(=O)N1Cc2cccn2Cc2ccccc21 [Example 107, [2-Methoxy-4-(3-methyl-pyrazol-1-yl)-phenyl](5H,11H-pyrrolo[2,1-c][1,4]-benzodiazepin-10-yl) methanone]	125	31	
COc1cc(-n2ccc(C)n2)ccc1C(=O)N1Cc2ccc(CN(C)C)n2Cc2ccccc21 [Example 108, (3-Dimethylaminomethyl-5H,11H-pyrrolo[2,1-c][1,4]benzodiazepin-10-yl)[2-methoxy-4-(3-methyl-pyrazol-1-yl)-phenyl]-methanone]	145	30	
Cc1ccn(-c2ccc(C(=O)N3Cc4cccn4Cc4ccccc43)c(O)c2)n1 [Example 109]	95	21	
Cn1cc(-c2ccc(C(=O)N3Cc4cccn4Cc4ccccc43)c(Cl)c2)cn1 [Example 115, [2-Chloro-4-(1-methyl-1H-pyrazol-4-yl)phenyl) (5H,11H-pyrrolo[2,1-c][1,4]-benzodiazepin-10-yl)-methanone]	229	66	
Cc1ccn(-c2ccc(C(=O)N3Cc4ccnn4Cc4ccccc43)c(Cl)c2)n1 [Example 116, [2-Chloro-4-(3-methyl-pyrazol-1-yl)-phenyl]-(4H,10H-pyrazolo[5,1-c][1,4]-benzodiazepin-5-yl)-methanone]	256	66	
Cc1ccn(-c2ccc(C(=O)N3Cc4nnnn4Cc4ccccc43)c(Cl)c2)n1 [Example 117]	311	68	
Cn1ccc(-c2ccc(C(=O)N3Cc4ccnn4Cc4ccccc43)cc2)n1 [Example 120A, [4-(1-Methyl-1H-pyrazol-3-yl)phenyl](4H,10H-pyrazolo[5,1c][1,4]-benzodiazepin-5-yl) methanone]	269	66	
Cn1nccc1-c1ccc(C(=O)N2Cc3ccnn3Cc3ccccc32)cc1 [Example 120B, [4-(2-Methyl-1H-pyrazol-3-yl)phenyl](4H,10H-pyrazolo[5,1c][1,4]-benzodiazepin-5-yl) methanone]	272	67	
CC(=O)c1ccc(C(=O)N2Cc3cccn3Cc3ccccc32)c(Cl)c1 [Example 121, 1-[4-(5H,11H-pyrrolo[2,1-c][1,4]benzodiazepine-10-carbonyl)-3-chlorophenyl]-ethanone]	155	22	
[2-Chloro-4-(3-methyl-4-ethynyl-phenyl) (5H,11H-pyrrolo[2,1-c][1,4]-benzodiazepin-10-yl)-methanone [Example 123]	663	88	
